Assay [1] concerns F10T (DNA, hairpin, hexaethylene glycol (HEG) linker between nucleotides 10 and 11) TATAGCTATATATAGCTATA
In words: FRET melting. Particulars: 10 mM KCl, 90 mM LiCl; 10 mM Li cacodylate; ligand 5 μM; DNA 0.2 μM.

Assay [2] concerns F21T (DNA, G4) GGGTTAGGGTTAGGGTTAGGG
In words: FRET melting. Particulars: 10 mM Li cacodylate, ligand 5 μM, DNA 0.2 μM.

Assay [3] concerns telo23 (DNA, G4) TAGGGTTAGGGTTAGGGTTAGGG
In words: UV/Vis titration. Conditions: K+ (100 mM potassium phosphate), pH 7.4, ligand 10 μM; for K d: apparent, independent and equivalent sites.

The subject of assay [4] is FmycT (DNA, G4) TTGAGGGTGGGTAGGGTGGGTAA
As to the kind of experiment: FRET melting. Conditions: 1 mM KCl, 99 mM LiCl; 10 mM Li cacodylate; ligand 5 μM; DNA 0.2 μM.

Assay [5] has as its system telo23 (DNA, G4) TAGGGTTAGGGTTAGGGTTAGGG
As to the kind of experiment: 1H imino NMR titration. Conditions: 20 mM potassium phosphate, 70 mM KCl; pH 7.0, 298 K, 90% H2O/10% D2O; DNA 185 μM.

Assay [6] has as its system Febr1T (DNA, G4) GGGCAGGGGGTGATGGGGAGGAGCCAGGG
As to the kind of experiment: FRET melting. Conditions: 10 mM KCl, 90 mM LiCl; 10 mM Li cacodylate; ligand 5 μM; DNA 0.2 μM.

For the compound `CN1CCN(CCCNc2ccc3c(c2)/C(=C2/CCc4ccc(NCCCN5CCN(C)CC5)cc42)CC3)CC1`, the ΔT m in assay [1] stood at 0 °C; in assay [2] (10 mM KCl, 90 mM LiCl), 0 °C; in assay [2] (100 mM NaCl), 0 °C; in assay [4] it was 0 °C. In assay [3] (Kd too weak for accurate determination), the binding entry is “weak”.

In turn, `CN1CCN(CCCNc2ccc3c(c2)/C(=C2\CCc4ccc(NCCCN5CCN(C)CC5)cc42)CC3)CC1` registered a ΔT m in assay [2] (10 mM KCl, 90 mM LiCl) of 6 °C. Moreover, the K d in assay [3] is 70 µM.

As to `C[n+]1ccc(-c2ccc3c(c2)/C(=C2/CCc4ccc(-c5cc[n+](C)cc5)cc42)CC3)cc1`, the binding result in assay [5] is listed as “yes”. The K d in assay [3] turned out to be 70 µM. The compound further displayed a ΔT m in assay [6] of 9 °C.

As to `C[n+]1ccc(-c2ccc3c(c2)/C(=C2\CCc4ccc(-c5cc[n+](C)cc5)cc42)CC3)cc1`, the binding result in assay [5] was “yes”. The compound further returned a ΔT m in assay [6] of 22 °C.

Take `C[n+]1ccc(-c2ccc3c(c2)CC/C3=C2/CCc3cc(-c4cc[n+](C)cc4)ccc32)cc1`: the ΔT m in assay [1] was determined as 3 °C; in assay [2] (10 mM KCl, 90 mM LiCl) it was 28 °C; in assay [2] (100 mM NaCl), 19 °C; in assay [4], 30 °C; in assay [6] it was 17 °C. Moreover, the binding result in assay [5] is reported as “yes”. The K d in assay [3] worked out at 2 µM.

Source of the values: PMC7318697 (2020).
